Data taken from patent US20060069036A1, “Methods of treatment of inflammation using glutathiones” (priority 2004, published 2006).

Experiments:
[1] = tested on: GSH levels; details: oral administration, cited from earlier work
[2] = tested on: psoriasis lesions
Excerpt: As of the filing of this application, a preliminary program of clinical testing has been conducted. […] Patients instructed to apply the product twice daily to the affected areas.

[3] = patients with psoriasis symptoms, topical cream 45 mg/ml GSH in phospholipid carrier, twice daily

| Structure (SMILES) | effect on GSH levels ([1]; HIV patients) | safety and tolerability [1] | adverse side effects ([2]; clinical studies to date, topical application) | response of patient lesions to treatment ([2]; patients with psoriasis symptoms, topical cream 45 mg/ml GSH in phospholipid carrier, applied twice daily to affected areas) | elasticity and supple feeling of the skin [2, 3] | inflammation, irritation, and erythema of the skin [2, 3] | time after first application to significant improvement (in some cases clearing) of lesions [2, 3] |
| --- | --- | --- | --- | --- | --- | --- | --- |
| O=C(O)CCCCC1CCSS1 (stereo not drawn) [alpha-lipoic acid, Alpha-lipoic acid] | raises GSH levels | extremely safe and well tolerated |  |  |  |  |  |
| N[C@@H](CCC(=O)N[C@@H](CS)C(=O)NCC(=O)O)C(=O)O [reduced glutathione (GSH), N-L-gamma-glutamyl-cysteinyl glycine] |  |  | no adverse side effects | significantly improved | returned | decreased | ≤ 24 h |
